Measurements as given in the NIST ThermoML archive (doi:10.1021/je060271a).
Several values for one entry are separate records, joined by “and”; a condition that tells them apart may be missing. Equal values may be shown once.

Settings: Liquid, Vibrating tube method

CCCCCC(=O)OCC(COC(=O)CCCCC)(COC(=O)CCCCC)COC(=O)CCCCC [pentaerythritol tetrahexanoate]
Settings	mass density
323.15 K, 11949 kPa	980.8 kg/m3
323.15 K, 11977 kPa	980.8 kg/m3
323.15 K, 12000 kPa	980.8 kg/m3
323.15 K, 12028 kPa	980.8 kg/m3
323.15 K, 12051 kPa	980.9 kg/m3
323.15 K, 12077 kPa	980.9 kg/m3
323.15 K, 12104 kPa	981 kg/m3
323.15 K, 12127 kPa	980.9 kg/m3
323.15 K, 12155 kPa	980.9 kg/m3
323.15 K, 12178 kPa	981 kg/m3
323.15 K, 12205 kPa	981 kg/m3
323.15 K, 12233 kPa	980.9 kg/m3
323.15 K, 12257 kPa	981 kg/m3
323.15 K, 12285 kPa	981.1 kg/m3
323.15 K, 12310 kPa	981.2 kg/m3
323.15 K, 12338 kPa	981.1 kg/m3
323.15 K, 12362 kPa	981.2 kg/m3
323.15 K, 12390 kPa	981.1 kg/m3
323.15 K, 12414 kPa	981 kg/m3
323.15 K, 12442 kPa	981.2 kg/m3
323.15 K, 12471 kPa	981.2 kg/m3
323.15 K, 12494 kPa	981.2 kg/m3
323.15 K, 12523 kPa	981.3 kg/m3
323.15 K, 12547 kPa	981.4 kg/m3
323.15 K, 12576 kPa	981.2 kg/m3
323.15 K, 12605 kPa	981.4 kg/m3
323.15 K, 12630 kPa	981.2 kg/m3
323.15 K, 12927 kPa	981.5 kg/m3
323.15 K, 12950 kPa	981.5 kg/m3
323.15 K, 12980 kPa	981.6 kg/m3
323.15 K, 13006 kPa	981.6 kg/m3
323.15 K, 13029 kPa	981.6 kg/m3
323.15 K, 13186 kPa	981.7 kg/m3
323.15 K, 13214 kPa	981.6 kg/m3
323.15 K, 13237 kPa	981.6 kg/m3
323.15 K, 13264 kPa	981.8 kg/m3
323.15 K, 13292 kPa	981.7 kg/m3
323.15 K, 13315 kPa	981.8 kg/m3
323.15 K, 13345 kPa	981.8 kg/m3
323.15 K, 13368 kPa	981.9 kg/m3
323.15 K, 13396 kPa	981.8 kg/m3
323.15 K, 13420 kPa	981.8 kg/m3
323.15 K, 13891 kPa	982.1 kg/m3
323.15 K, 13918 kPa	982.1 kg/m3
323.15 K, 13941 kPa	982.1 kg/m3
323.15 K, 13969 kPa	982.2 kg/m3
323.15 K, 13992 kPa	982.2 kg/m3
323.15 K, 14020 kPa	982.3 kg/m3
323.15 K, 14514 kPa	982.5 kg/m3
323.15 K, 14565 kPa	982.6 kg/m3
323.15 K, 14593 kPa	982.6 kg/m3
323.15 K, 14621 kPa	982.6 kg/m3
323.15 K, 14645 kPa	982.6 kg/m3
323.15 K, 14674 kPa	982.6 kg/m3
323.15 K, 14698 kPa	982.5 kg/m3
323.15 K, 14726 kPa	982.7 kg/m3
323.15 K, 14750 kPa	982.7 kg/m3
323.15 K, 14778 kPa	982.8 kg/m3
323.15 K, 14807 kPa	982.7 kg/m3
323.15 K, 14831 kPa	982.8 kg/m3
323.15 K, 15257 kPa	983 kg/m3
323.15 K, 15281 kPa	983.1 kg/m3
323.15 K, 15309 kPa	983.1 kg/m3
323.15 K, 15339 kPa	983 kg/m3
323.15 K, 15364 kPa	983.2 kg/m3
323.15 K, 15393 kPa	983.1 kg/m3
323.15 K, 15417 kPa	983.1 kg/m3
323.15 K, 20896 kPa	986.7 kg/m3
323.15 K, 22666 kPa	987.8 kg/m3
323.15 K, 28442 kPa	991.1 kg/m3
323.15 K, 28670 kPa	991.3 kg/m3
323.15 K, 28695 kPa	991.4 kg/m3
323.15 K, 28724 kPa	991.4 kg/m3
323.15 K, 28754 kPa	991.4 kg/m3
323.15 K, 28783 kPa	991.4 kg/m3
323.15 K, 28808 kPa	991.4 kg/m3
323.15 K, 28838 kPa	991.4 kg/m3
323.15 K, 28867 kPa	991.4 kg/m3
323.15 K, 28897 kPa	991.6 kg/m3
323.15 K, 28927 kPa	991.5 kg/m3
323.15 K, 28957 kPa	991.6 kg/m3
323.15 K, 28982 kPa	991.5 kg/m3
323.15 K, 29012 kPa	991.5 kg/m3
323.15 K, 29044 kPa	991.5 kg/m3
323.15 K, 29070 kPa	991.5 kg/m3
323.15 K, 29101 kPa	991.7 kg/m3
323.15 K, 29132 kPa	991.7 kg/m3
323.15 K, 29158 kPa	991.6 kg/m3
323.15 K, 29554 kPa	991.8 kg/m3
323.15 K, 29577 kPa	991.9 kg/m3
323.15 K, 29762 kPa	992 kg/m3
323.15 K, 29785 kPa	992 kg/m3
323.15 K, 29812 kPa	992 kg/m3
323.15 K, 29839 kPa	992.1 kg/m3
323.15 K, 29866 kPa	992.2 kg/m3
323.15 K, 29893 kPa	992.1 kg/m3
323.15 K, 29921 kPa	992 kg/m3
323.15 K, 29944 kPa	992 kg/m3
323.15 K, 29972 kPa	992.2 kg/m3
323.15 K, 30466 kPa	992.5 kg/m3
323.15 K, 30496 kPa	992.4 kg/m3
323.15 K, 30520 kPa	992.4 kg/m3
323.15 K, 30549 kPa	992.5 kg/m3
323.15 K, 31454 kPa	992.9 kg/m3
323.15 K, 31474 kPa	992.9 kg/m3
323.15 K, 31495 kPa	993 kg/m3
323.15 K, 31516 kPa	993 kg/m3
323.15 K, 31533 kPa	993 kg/m3
323.15 K, 31653 kPa	993.1 kg/m3
323.15 K, 31674 kPa	993.2 kg/m3
323.15 K, 31695 kPa	993.2 kg/m3
323.15 K, 31717 kPa	993.1 kg/m3
323.15 K, 31734 kPa	993.2 kg/m3
323.15 K, 31755 kPa	993.1 kg/m3
323.15 K, 32384 kPa	993.6 kg/m3 and 993.5 kg/m3
323.15 K, 32385 kPa	993.5 kg/m3
323.15 K, 32386 kPa	993.5 kg/m3
323.15 K, 32387 kPa	993.6 kg/m3
323.16 K, 578.8 kPa	973 kg/m3
323.16 K, 580.8 kPa	973.2 kg/m3
323.16 K, 582.6 kPa	973.1 kg/m3
323.16 K, 584.7 kPa	973 kg/m3
323.16 K, 586.6 kPa	973 kg/m3
323.16 K, 588.7 kPa	973 kg/m3
323.16 K, 590.7 kPa	973.3 kg/m3
323.16 K, 714.1 kPa	973.2 kg/m3
323.16 K, 716.9 kPa	973.2 kg/m3
323.16 K, 718.8 kPa	973.3 kg/m3
323.16 K, 721.8 kPa	973.3 kg/m3
323.16 K, 724 kPa	973.2 kg/m3
323.16 K, 727.1 kPa	973.1 kg/m3
323.16 K, 729.4 kPa	973.2 kg/m3
323.16 K, 732.2 kPa	973.2 kg/m3
323.16 K, 735.1 kPa	973.1 kg/m3
323.16 K, 737.9 kPa	973.2 kg/m3
323.16 K, 1019.3 kPa	973.3 kg/m3
323.16 K, 1022.8 kPa	973.4 kg/m3
323.16 K, 1026.6 kPa	973.4 kg/m3
323.16 K, 1030.3 kPa	973.5 kg/m3
323.16 K, 1034.3 kPa	973.3 kg/m3
323.16 K, 1037.9 kPa	973.5 kg/m3
323.16 K, 1042.3 kPa	973.3 kg/m3
323.16 K, 1045.6 kPa	973.4 kg/m3
323.16 K, 1049.9 kPa	973.4 kg/m3
323.16 K, 1053.7 kPa	973.4 kg/m3
